Test results as given in the CheMixHub ionic liquid set.
± gives the uncertainty stated by the source.

Assay: xn = mol fraction of the nth substance listed
[1] = 298.15 K, 100 kPa, x2 = 0, x3 = 0.9487

SMILES: O=C1CCCO1 + C[NH+](C)C.O=S(=O)([N-]S(=O)(=O)C(F)(F)F)C(F)(F)F
- viscosity (333.15 K, 101 kPa, x1 = 1): 1.08 ± 0.07 mPa·s

SMILES: CCCC[N+]1(C)CCCC1.O=S(=O)([N-]S(=O)(=O)C(F)(F)F)C(F)(F)F + Cc1ccccc1
- viscosity (298.15 K, 100 kPa, x2 = 0): 70.1 ± 1.5 mPa·s
- viscosity (298.15 K, 100 kPa, x2 = 0.5054): 14.96 ± 0.32 mPa·s
- viscosity (298.15 K, 100 kPa, x2 = 0.6027): 10.08 ± 0.21 mPa·s
- viscosity (303.15 K, 100 kPa, x2 = 0.3041): 25.03 ± 0.53 mPa·s
- viscosity (303.15 K, 100 kPa, x2 = 0.3965): 18.66 ± 0.39 mPa·s
- viscosity (313.15 K, 100 kPa, x2 = 0): 37.99 ± 0.8 mPa·s
- viscosity (313.15 K, 100 kPa, x2 = 0.3041): 18.55 ± 0.39 mPa·s
- viscosity (313.15 K, 100 kPa, x2 = 0.3965): 14.35 ± 0.3 mPa·s
- viscosity (313.15 K, 100 kPa, x2 = 0.7066): 4.73 ± 0.1 mPa·s

SMILES: O=C[C@H](O)[C@@H](O)[C@H](O)[C@H](O)CO + Cn1cc[n+](CCC[n+]2ccn(C)c2)c1.[Br-].[Br-] + O
- viscosity (293.15 K, 101 kPa, x2 = 0, x1 = 0.001799): 1.043 mPa·s
- viscosity (298.15 K, 101 kPa, x2 = 0, x1 = 0.001799): 0.927 mPa·s
- viscosity (303.15 K, 101 kPa, x2 = 0, x1 = 0.001799): 0.83 mPa·s
- viscosity (308.15 K, 101 kPa, x2 = 0, x1 = 0.001799): 0.754 mPa·s
- viscosity (313.15 K, 101 kPa, x2 = 0, x1 = 0.001799): 0.683 mPa·s

SMILES: Fc1ccccn1 + Fc1cccc[nH+]1.O=S(=O)([O-])C(F)(F)F
- electrical conductivity (242.8 K, 100 kPa, x1 = 0.9): 0.096 ± 0.002 S/m
- electrical conductivity (252.7 K, 100 kPa, x1 = 0.9): 0.144 ± 0.003 S/m
- electrical conductivity (262.8 K, 100 kPa, x1 = 0.5): 0.0069 ± 0.0001 S/m
- electrical conductivity (282 K, 100 kPa, x1 = 0.95): 0.497 ± 0.01 S/m
- electrical conductivity (282.5 K, 100 kPa, x1 = 0.5): 0.023 ± 0.0005 S/m
- electrical conductivity (282.5 K, 100 kPa, x1 = 0.9): 0.576 ± 0.012 S/m
- electrical conductivity (286.9 K, 100 kPa, x1 = 0.95): 0.564 ± 0.011 S/m
- electrical conductivity (292.7 K, 100 kPa, x2 = 0.01): 0.174 ± 0.004 S/m
- electrical conductivity (301.5 K, 100 kPa, x1 = 0.9): 0.75 ± 0.015 S/m

SMILES: C=CCn1cc[n+](C)c1.[I-] + II
- electrical conductivity (298 K, 101.3 kPa, x1 = 0.25): 4.21 ± 0.42 S/m

SMILES: CCCC[N+]1(C)CCCC1.N#C[N-]S(=O)(=O)C(F)(F)F + N#C[N-]S(=O)(=O)C(F)(F)F.[Li+]
- electrical conductivity (308 K, 101 kPa, frequency 0 MHz, x2 = 0): 0.644 ± 0.065 S/m
- viscosity (308 K, 101 kPa, x2 = 0): 33.6 ± 1.7 mPa·s
- electrical conductivity (313 K, 101 kPa, frequency 0 MHz, x2 = 0): 0.752 ± 0.075 S/m
- viscosity (313 K, 101 kPa, x2 = 0): 28.6 ± 1.5 mPa·s

SMILES: CCCCCCCCn1cc[n+](C)c1.F[B-](F)(F)F + NC(N)=O + O
- viscosity [1]: 5.25 ± 0.27 mPa·s
- viscosity (298.15 K, 100 kPa, x2 = 0.008492, x3 = 0.9402): 5.16 ± 0.26 mPa·s
- viscosity (298.15 K, 100 kPa, x2 = 0.01695, x3 = 0.9318): 5.13 ± 0.26 mPa·s
- viscosity (298.15 K, 100 kPa, x2 = 0.03322, x3 = 0.9155): 5.12 ± 0.26 mPa·s
- viscosity (298.15 K, 100 kPa, x2 = 0.0408, x3 = 0.9079): 5.13 ± 0.26 mPa·s

SMILES: CCCCCCCCn1cc[n+](C)c1.[Br-] + NC(N)=O + O
- viscosity (298.15 K, 100 kPa, x2 = 0, x3 = 0.9008): 31.3 ± 1.6 mPa·s
- viscosity [1]: 7.96 ± 0.45 mPa·s
- viscosity (298.15 K, 100 kPa, x2 = 0.008063, x3 = 0.8927): 31.3 ± 1.6 mPa·s
- viscosity (298.15 K, 100 kPa, x2 = 0.008505, x3 = 0.9402): 7.68 ± 0.44 mPa·s
- viscosity (298.15 K, 100 kPa, x2 = 0.01609, x3 = 0.8847): 31.2 ± 1.6 mPa·s
- viscosity (298.15 K, 100 kPa, x2 = 0.02499, x3 = 0.9237): 7.49 ± 0.38 mPa·s
- viscosity (298.15 K, 100 kPa, x2 = 0.03154, x3 = 0.8693): 30.7 ± 1.6 mPa·s
- viscosity (298.15 K, 100 kPa, x2 = 0.03316, x3 = 0.9155): 7.32 ± 0.42 mPa·s
- viscosity (298.15 K, 100 kPa, x2 = 0.03874, x3 = 0.8621): 30.7 ± 1.6 mPa·s
- viscosity (298.15 K, 100 kPa, x2 = 0.04082, x3 = 0.9079): 7.14 ± 0.41 mPa·s
